Results: US20230109833A1, “METABOLICALLY STABLE N-ACYLAMINOOXADIAZOLES USEFUL AS ANTIBACTERIAL AGENTS” (MICROBIOTIX, INC., priority 2017, published 2023)
Values after ≈ are worked out from the molar mass of the structure shown. “Also recorded” adds a separate entry of the source. Where two headings read alike, the source gives them in different places. Blank lines part the entries; values can stand above or below the compound they belong to.

What was measured:
S. aureus = assay: MIC (Table 2B); assay type: cell-based; settings: Staphylococcus aureus, strain not given
N. gonorrhoeae = assay: MIC (Table 2B); assay type: cell-based; settings: Neisseria gonorrhoeae, read-out: N. gonorrhoeae MIC
[1] = Single dose PK (IV and PO); assay type: in vivo; settings: mice, 10 mg/kg IV or IP, within 6 h, serum; 10 mg/kg
36 mammalian receptors = assay type: binding; settings: 10 μM; every receptor of the panel

SMILES: Cc1ccc(C(=O)Nc2nnc(-c3ccc(N4CCC4)cc3)o2)cc1C [3999A]
- MIC (S. aureus): 0.68 µg/mL (≈ 1.95 µM)
- MIC (N. gonorrhoeae; Table 2B, strain not given): 0.087 µg/mL (≈ 0.25 µM)

SMILES: O=C(Nc1nnc(-c2ccccc2O)o1)c1ccc(Oc2ccccc2)nc1 [5939A]
- MIC (S. aureus): 1.4 µg/mL (≈ 3.74 µM)
- MIC (N. gonorrhoeae; Table 2B, strain not given): 0.82 µg/mL (≈ 2.19 µM)

SMILES: O=C(Nc1nnc(-c2ccc(F)cc2)o1)c1ccc(Cl)cc1 [KKL-35]
- detectable material after dosing (preliminary PK) [1]: no detectable material; also recorded: undetectable

SMILES: O=C(Nc1nnc(-c2ccc(F)cc2)o1)c1ccc(Cl)s1 [compound 3653]
- MIC (N. gonorrhoeae; Table 2B, strain not given): 0.32 µg/mL (≈ 0.988 µM)

SMILES: CN(C(=O)c1ccc(Cl)cc1)c1nnc(-c2ccc(F)cc2)o1 [compound 4076]
- MIC (S. aureus): 8.27 µg/mL (≈ 24.9 µM)
- MIC (N. gonorrhoeae; Table 2B, strain not given): 2.07 µg/mL (≈ 6.24 µM)

SMILES: O=C(Nc1nnc(-c2ccc(F)cc2)o1)c1ccc(Oc2ccccc2)nc1 [compound 4237, 2-(6-phenoxynicotinamido)-5-(4-fluorophenyl)-1,3,4-oxadiazole]
- inhibition of the 36 mammalian receptors (36 mammalian receptors): < 50%

- MIC (S. aureus): 2.64 µg/mL (≈ 6.23 µM)
SMILES: O=C(Nc1nnc(-c2ccc(F)cc2)o1)c1ccc(S(=O)(=O)c2ccccc2)cc1 [compound 4257]

- MIC (S. aureus): 0.28 µg/mL (≈ 0.762 µM)
SMILES: O=C(Nc1nnc(-c2ccc(F)cc2)o1)c1ccc(OC2CCCC2)cc1 [compound 4293]

SMILES: O=C(Nc1nnc(-c2ccc(F)cc2)o1)c1ccc(Oc2cccc(O)c2)cc1 [compound 4304]
- MIC (S. aureus): 3.07 µg/mL (≈ 7.84 µM)
- MIC (N. gonorrhoeae; Table 2B, strain not given): 0.39 µg/mL (≈ 0.997 µM)

SMILES: Cc1ccc(Oc2ccc(C(=O)Nc3nnc(-c4ccc(F)cc4)o3)cc2)cc1 [compound 4305]
- MIC (S. aureus): 0.03 µg/mL (≈ 0.077 µM)
- MIC (N. gonorrhoeae; Table 2B, strain not given): 0.048 µg/mL (≈ 0.123 µM)

SMILES: Cc1cccc(Oc2ccc(C(=O)Nc3nnc(-c4ccc(F)cc4)o3)cc2)c1 [compound 4306]
- MIC (S. aureus): 0.03 µg/mL (≈ 0.077 µM)
- MIC (N. gonorrhoeae; Table 2B, strain not given): 0.048 µg/mL (≈ 0.123 µM)

SMILES: Cc1ccccc1Oc1ccc(C(=O)Nc2nnc(-c3ccc(F)cc3)o2)cc1 [compound 4307]
- MIC (S. aureus): 0.61 µg/mL (≈ 1.57 µM)
- MIC (N. gonorrhoeae; Table 2B, strain not given): 0.09 µg/mL (≈ 0.231 µM)

SMILES: Cc1cc(C)cc(Oc2ccc(C(=O)Nc3nnc(-c4ccc(F)cc4)o3)cc2)c1 [compound 4308]
- MIC (S. aureus): 0.314 µg/mL (≈ 0.778 µM)
- MIC (N. gonorrhoeae; Table 2B, strain not given): 0.079 µg/mL (≈ 0.196 µM)

SMILES: COc1cccc(Oc2ccc(C(=O)Nc3nnc(-c4ccc(F)cc4)o3)cc2)c1 [compound 4309]
- MIC (S. aureus): 0.63 µg/mL (≈ 1.55 µM)
- MIC (N. gonorrhoeae; Table 2B, strain not given): 0.1 µg/mL (≈ 0.247 µM)

SMILES: COc1ccc(Oc2ccc(C(=O)Nc3nnc(-c4ccc(F)cc4)o3)cc2)cc1 [compound 4310]
- MIC (S. aureus): 0.631 µg/mL (≈ 1.56 µM)
- MIC (N. gonorrhoeae; Table 2B, strain not given): 0.05 µg/mL (≈ 0.123 µM)

SMILES: O=C(Nc1nnc(-c2ccc(F)cc2)o1)c1ccc2c(c1)ncn2-c1ccccc1 [compound 4311]
- MIC (N. gonorrhoeae; Table 2B, strain not given): 2.49 µg/mL (≈ 6.23 µM)

SMILES: CC(Oc1ccc(C(=O)Nc2nnc(-c3ccc(F)cc3)o2)cc1)c1ccccc1 (stereo not shown) [compound 4357]
- MIC (N. gonorrhoeae; Table 2B, strain not given): 0.2 µg/mL (≈ 0.496 µM)

SMILES: O=C(Nc1nnc(C2CCCC2)o1)c1ccc(Oc2ccccc2)nc1 [compound 4470]
- MIC (S. aureus): 4.37 µg/mL (≈ 12.5 µM)
- MIC (N. gonorrhoeae; Table 2B, strain not given): 0.35 µg/mL (≈ 0.999 µM)

SMILES: Cc1cccc(-c2nnc(NC(=O)c3ccc(Oc4ccccc4)nc3)o2)c1 [compound 4499]
- MIC (S. aureus): 0.92 µg/mL (≈ 2.47 µM)
- MIC (N. gonorrhoeae; Table 2B, strain not given): 0.18 µg/mL (≈ 0.483 µM)

SMILES: O=C(Nc1nnc(C2COc3ccccc3O2)o1)c1ccc(Oc2ccccc2)nc1 (stereo not shown) [compound 4770]
- MIC (S. aureus): 7.36 µg/mL (≈ 17.7 µM)
- MIC (N. gonorrhoeae; Table 2B, strain not given): 3.33 µg/mL (≈ 8 µM)

SMILES: O=C(Nc1nnc(C2CCCCC2)o1)c1ccc(Oc2ccccc2)nc1 [compound 4780]
- MIC (S. aureus): 3.61 µg/mL (≈ 9.91 µM)
- MIC (N. gonorrhoeae; Table 2B, strain not given): 0.36 µg/mL (≈ 0.988 µM)

SMILES: O=C(Nc1nnc(C2CCCCC2)o1)c1ccc(Oc2cccc(O)c2)cc1 [compound 4801]
- MIC (S. aureus): 2.98 µg/mL (≈ 7.85 µM)
- MIC (N. gonorrhoeae; Table 2B, strain not given): 0.19 µg/mL (≈ 0.501 µM)

SMILES: O=C(Nc1nnc(Cc2ccc(F)cc2)o1)c1ccc(Oc2ccccc2)nc1 [compound 4802]
- MIC (N. gonorrhoeae; Table 2B, strain not given): 1.56 µg/mL (≈ 4 µM)

SMILES: CCC(c1ccccc1)c1nnc(NC(=O)c2ccc(Oc3ccccc3)nc2)o1 (stereo not shown) [compound 4804]
- MIC (N. gonorrhoeae; Table 2B, strain not given): 0.63 µg/mL (≈ 1.57 µM)

SMILES: O=C(Nc1nnc(C2CCCCC2)o1)c1ccc(OC2CCCCC2)nc1 [compound 4925]
- MIC (N. gonorrhoeae; Table 2B, strain not given): 0.14 µg/mL (≈ 0.378 µM)

SMILES: O=C(Nc1nnc(C2CC3CCC2C3)o1)c1ccc(Oc2ccccc2)nc1 (stereo not shown) [compound 5246]
- MIC (S. aureus): 4.71 µg/mL (≈ 12.5 µM)
- MIC (N. gonorrhoeae; Table 2B, strain not given): 0.16 µg/mL (≈ 0.425 µM)

SMILES: O=C(Nc1nnc(C2(O)CCCCC2)o1)c1ccc(Oc2ccccc2)nc1 [compound 5793]
- MIC (N. gonorrhoeae; Table 2B, strain not given): 38 µg/mL (≈ 99.9 µM)

SMILES: Nc1ccc(C(=O)Nc2nnc(-c3ccc(F)cc3)o2)cc1 [compound 5804]
- MIC (N. gonorrhoeae): 18.8 µg/mL (≈ 63 µM)

SMILES: N#Cc1nnc(NC(=O)c2ccc(Oc3ccccc3)nc2)o1 [compound 5834]
- MIC (N. gonorrhoeae; Table 2B, strain not given): 20.3 µg/mL (≈ 66.1 µM)

SMILES: O=C(Nc1nnc(-c2ccc(F)cc2)o1)c1ccc(N2CCC2)cc1 [compound 5910]
- MIC (S. aureus): 18.9 µg/mL (≈ 55.9 µM)
- MIC (N. gonorrhoeae; Table 2B, strain not given): 4.23 µg/mL (≈ 12.5 µM)

SMILES: O=C(Nc1nnc(-c2ccccc2O)o1)c1ccc(Oc2cccc(O)c2)cc1 [compound 6205]
- MIC (S. aureus): 1.71 µg/mL (≈ 4.39 µM)
- MIC (N. gonorrhoeae; Table 2B, strain not given): 0.3 µg/mL (≈ 0.77 µM)

SMILES: O=C(Nc1nnc(C2CC3CCC2C3)o1)c1ccc(OC2CCN(CC(F)(F)F)CC2)cc1 (stereo not shown) [compound 6211]
- MIC (S. aureus): 5.8 µg/mL (≈ 12.5 µM)
- MIC (N. gonorrhoeae; Table 2B, strain not given): 1.29 µg/mL (≈ 2.78 µM)

SMILES: O=C(Nc1nnc(-c2cccc(O)c2)o1)c1ccc(Oc2cccc(O)c2)cc1 [compound 6236]
- MIC (S. aureus): 19.4 µg/mL (≈ 49.8 µM)
- MIC (N. gonorrhoeae; Table 2B, strain not given): 4.86 µg/mL (≈ 12.5 µM)

SMILES: Cc1cncc(Oc2ccc(C(=O)Nc3nnc(C4CC5CCC4C5)o3)cc2)n1 (stereo not shown) [compound 6282]
- MIC (S. aureus): 6.9 µg/mL (≈ 17.6 µM)
- MIC (N. gonorrhoeae; Table 2B, strain not given): 1.37 µg/mL (≈ 3.5 µM)

SMILES: O=C(Nc1nnc(-c2cccc(F)c2O)o1)c1ccc(Oc2cccc(O)c2)cc1 [compound 6976]
- MIC (S. aureus): 2.5 µg/mL (≈ 6.14 µM)
- MIC (N. gonorrhoeae; Table 2B, strain not given): 1.91 µg/mL (≈ 4.69 µM)

SMILES: O=C(Nc1nnc(-c2cc(F)ccc2O)o1)c1ccc(Oc2cccc(O)c2)cc1 [compound 6977]
- MIC (S. aureus): 0.6 µg/mL (≈ 1.47 µM)
- MIC (N. gonorrhoeae; Table 2B, strain not given): 0.21 µg/mL (≈ 0.516 µM)

SMILES: COc1c(F)cccc1-c1nnc(NC(=O)c2ccc(Oc3cncc(C)n3)cc2)o1 [compound 6983]
- MIC (S. aureus): 21.1 µg/mL (≈ 50.1 µM)
- MIC (N. gonorrhoeae; Table 2B, strain not given): 9.7 µg/mL (≈ 23 µM)
